Tests used:
STAT3 dimerization = molecular target: T1, STAT3 dimerization (Homo sapiens, UniProt P40763); experiment: Co-immunoprecipitation of HA-STAT3 and FLAG-STAT3 in 293T cells; type: cell-based; conditions: 50 μM, 24 hours, compared with S3I-201 (200 μM)
T1 construct: expressed in transfected cells; host or cells: 293T cells
Method: 293T cells were collected in the medium and centrifuged at 800 g x 5 min, then washed with cold PBS twice before adding 500 μl Pierce™ IP Lysis Buffer (Thermofisher Scientific, 87787), containing protease and phosphatase inhibitor cocktail without DTT (Roche, 11836153001), into the cells. Cell lysates were passed several times through a 27^1/2-gauge needle to disrupt the nuclei. 1-2 mg extracts were added with pre-cleaned 50 μL slurry of Pierce™ […] Magnetic Agarose (Thermoscientific, A36797), then supernatant were collect with magnet and immunoprecipitated (IP) at RT on a rotator for 30 min. Beads were boiled at 95° C. for 5 min followed by adding the 100 μL of 1× Non-reducing Sample Buffer (Thermofisher Scientific, 39000) into beads. The supernatant was collected with a magnet and then added 5 μL of 1M DTT (Thermoscientific, P2325) into sample prior to proceeding the immunoblotting.
Nuclear translocation of the STAT3 dimers mediates the STAT3 transcriptional activity.

[1] = test system: STAT3 target genes (Cyclin D1, BCL-XL, MCL1, Survivin, PARP); experiment: Western blot of STAT3 target gene proteins; type: cell-based, human
Method: As reported, aberrant STAT3 regulates the expression of downstream target genes involved in anti-apoptosis (Bcl-2, Mcl-1, survivin, and Bcl-xL), cell cycle (cyclin D1 and c-Myc), angiogenesis (VEGF and HIF1α), invasion and metastasis (MMP-1, MMP-2, MMP-9) and the inhibition of host immune surveillance. To further identify the characterization of the properties of 323-1 and 323-2, DU145, EPT3-M1-STAT3 and LNCaP cells were treated with 323-1 and 323-2 followed by western blotting.
To obtain the results shown in FIG. 13, EPT3M1-STAT3 or LNCaP cells were treated with DMSO, 20 μM of compound 323-1, or 20 μM of compound 323-2 for 48 hrs, respectively. Lysates were analysed and loaded to western blotting.

[2] = test system: LPS-induced IL-10 and IL-12p70 secretion in dendritic cells; experiment: ELISA of secreted IL-10 and IL-12p70 in LPS-stimulated dendritic cells; type: cell-based, human; conditions: 24 hrs
Method: Low platelet peripheral blood mononuclear cells (PBMCs) were isolated from peripheral blood of healthy donors by Ficoll-Paque density centrifugation. Monocytes were derived from the above PBMCs by immunomagnetic selection with CD14+ microbeads (Pan Monocyte Isolation Kit from Miltenyi Biotec) and seeded at s 0.5×10^6 monocytes/ml in CellGro medium supplemented with GM-CSF (100 ng/ml) and IL-4 (20 ng/ml) to obtain immature dendritic cells (iDCs). Cytokines were replenished after 72 hrs and 24 hrs after incubation, iDCs were stimulated with 30 ng/ml LPS to obtain mature dendritic cells (moDCs). Test compounds were added into the wells 1 hr prior to the LPS treatment and co-incubated with LPS for another 23 hrs. Supernatant was collected for the detection of secreted IL-10 and IL-12p70 using a standard ELISA kit and cells were collected and markers identified by flow cytometry.
The effects of compounds 323-1 and 323-2 and various controls on the LPS-induced expression of cytokines IL-10, IL-12p70, co-stimulatory molecules and maturation markers (CD80, CD83, CD86, HLA-DR, CCR7) and programmed death-ligand 1 (PD-L1) and programmed death-ligand 2 (PD-L2) were determined.

LNCaP tumours = experiment: Antitumor activity in vivo, LNCaP xenograft; conditions: IP daily for three weeks
Method: Four-week-old male BALB/c-nu nude mice (15-20 g) were obtained from the Shanghai BiKai Laboratory Animal Co., Ltd. (Shanghai, China). The animals were maintained under specific pathogen-free conditions with food and water supplied ad libitum in the Laboratory Animal Center of the Second Military Medical University. All animal experiments were carried out in accordance with the Guide for the Care and Use of Laboratory Animals of the National Institutes of Health and were approved by the Committee on the Ethics of Animal Experiments of the Second Military Medical University, China. LNCaP cells were harvested and re-suspended in PBS. A total of 5×10^6 cells were subcutaneously injected into the right flank. Tumour volume was calculated using the following formula: V=(L×[…])/2, where L is the length and W is the width of the tumour nodules measured with vernier callipers. Once the volume of the tumours reached 75-100 mm^3, the mice were randomly divided into three groups (n=6). […] Body weights and tumour volumes were measured before each drug injection. […]
The mice were treated daily for three weeks with IP injections of either vehicle (olive oil) or compound 323-2 (20 mg/kg or 40 mg/kg in the vehicle). Body weights and tumour volumes were measured before each drug injection. […]

[3] = test system: PC3, 22Rv1, LNCaP, EPT3-M1-STAT3-GFP cells; experiment: MTS cell proliferation assay; type: cell-based, human; conditions: FIGS. 1-4
Method: PC3, 22Rv1, LNCaP, EPT3-M1-STAT3 cells were seeded in 96-well plates for 24 hrs followed by treatment with different doses of 323-1 or 323-2. MTS assay was done after 3 days by adding 10 μl/well CellTiter 96@ AQueous One Solution Reagent (Promega, Madison, Wis., USA) for 4 hrs and the absorbance at 490 nm recorded using a Biotek machine.
To obtain the results shown in FIGS. 1-4, different cell lines were treated with indicated doses of compounds 323-1 and 323-2 for 72 hrs. All data are represented as the average±s.e.m (n=3). Significance was verified by using unpaired two-tailed Student's t-test. *p s 0.05 The total synthesis of compounds 323-1 and 323-2 was conducted as previously reported by Zhang et al. (Journal of the American Chemical Society. 2017; 139: 5558-67). The chemical structures of compounds 323-1 and 323-2 were validated by ^1H NMR, ^13C NMR.

[4] = EPT3-M1-STAT3 and LNCaP cells, 20 μM, 48 hrs

T1 sequence (P40763 whole entry): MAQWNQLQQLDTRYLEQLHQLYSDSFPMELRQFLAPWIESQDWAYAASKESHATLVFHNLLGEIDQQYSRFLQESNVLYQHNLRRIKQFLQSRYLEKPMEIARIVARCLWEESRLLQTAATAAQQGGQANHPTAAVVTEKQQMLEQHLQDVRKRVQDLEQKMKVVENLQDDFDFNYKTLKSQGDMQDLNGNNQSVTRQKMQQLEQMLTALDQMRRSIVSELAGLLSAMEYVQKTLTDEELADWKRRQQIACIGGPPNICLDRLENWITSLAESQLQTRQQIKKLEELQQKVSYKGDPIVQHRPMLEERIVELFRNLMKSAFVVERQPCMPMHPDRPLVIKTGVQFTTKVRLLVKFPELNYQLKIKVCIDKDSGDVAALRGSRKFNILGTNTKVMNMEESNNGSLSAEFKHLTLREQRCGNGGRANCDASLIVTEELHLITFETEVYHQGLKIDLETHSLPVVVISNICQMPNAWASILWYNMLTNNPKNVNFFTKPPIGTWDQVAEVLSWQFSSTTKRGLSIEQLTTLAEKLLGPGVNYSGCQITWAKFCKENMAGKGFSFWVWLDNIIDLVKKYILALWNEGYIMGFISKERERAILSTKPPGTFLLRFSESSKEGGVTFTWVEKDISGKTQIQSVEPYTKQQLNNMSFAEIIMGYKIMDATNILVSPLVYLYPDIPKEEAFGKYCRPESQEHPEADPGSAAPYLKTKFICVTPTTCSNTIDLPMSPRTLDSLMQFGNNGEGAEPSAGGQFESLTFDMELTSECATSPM

C[C@@H]1CCC(c2cc3c4c(cncc4c2)[C@@H](C)C3)=C1C=O [323-2, (15S,2R)-Delavatine A]
Dimerization of STAT3 (HA-STAT3/FLAG-STAT3) (STAT3 dimerization): could disrupt the dimerization of STAT3 | Protein level of STAT3 target gene MCL1 [1, 4]: repressed | Protein level of Survivin or PARP [1, 4]: but not Survivin or PARP | Expression of Cyclin D1 ([1]; LNCaP cells): down-regulated dose-dependently | Secretion of IL-10 and IL-12p70 [2]: significantly reduced | CRPC tumour growth (LNCaP tumours; 20 mg/kg or 40 mg/kg, especially high dose): significantly inhibited CRPC tumour growth | Body weight change (LNCaP tumours; 20 or 40 mg/kg): No significant body weight change | Inhibition of proliferation of tumor-initiating and other tumor cells [3]: efficiently inhibit the proliferation
